Drawing on PMC6214026, “PSMA-Oriented Target Delivery of Novel Anticancer Prodrugs: Design, Synthesis, and Biological Evaluations of Oligopeptide-Camptothecin Conjugates” (International Journal of Molecular Sciences, 2018), this text covers IC50 for six compounds.

Assay [1] has as its system MDCK cells. Nature of the assay: cells. Format: cell-based. As to conditions: MTT, 72 h, normal cells; read-out: IC50 MDCK. The procedure:
(§1) The cytotoxicities of PSMA-activated prodrug CPT-HT-J-ZLn and PSMA hydrolysate CPT-D-GLn were evaluated by MTT assays on PSMA-expressing (PSMA^+) cancer cell LNCaP-FGC, non-PSMA-expressing (PSMA^−) cancer cells HepG2, MCF-7, Hela, DU145, and PC-3, and normal cells MDCK, LO2, respectively, using CPT as a positive control.
(§2) The cytotoxicity of all the tested compounds was evaluated in vitro via the MTT method against PSMA-expressing LNCaP-FGC cells and non-PSMA-expressing cells HepG2, Hela, MCF-7, DU145, PC-3 cells using CPT as the positive control. Tumor cells growing in the logarithmic phase were seeded in 96-well plates at a density 3 × 10^3 cells/well and incubated overnight. The following day, cells were then treated with serial dilutions of the tested compounds for 72 h. At the end of this incubation, 20 µL of 5 mg/mL methylthiazol tetrazolium (MTT) was added to each well and incubation proceeded at 37 °C for another 4 h. After the supernatant medium was thrown away, 150 µL dimethylsulphoxide (DMSO) were added to each well and absorbance was measured at 490 nm using a plate reader (BIORAD 550 spectrophotometer, Bio-rad Life Science Development Ltd., Berkeley, CA, USA). Experiments were performed in triplicate and the values were the average of three (n = 3) independent experiments. The concentration of the compound that results in 50% growth inhibition corresponds to the IC50. Tumor cell growth inhibitory rate was calculated using Equation (1): % inhibition = (1 − Sample group OD/Control group OD) × 100%(1)

In assay [2] the test system is LO2 cells. In words: cells. Format: cell-based. As to conditions: MTT, 72 h, normal cells; read-out: IC50 LO2. How it is done:
as §1, §2

Assay [3] relates to DU145 cells (non-PSMA-expressing). Nature of the assay: cells. Format: cell-based, human. As to conditions: MTT, 72 h, mean ± SD, n = 3; read-out: IC50 DU145. How it is done: as §1
(§3) The human prostate cancer cell line (LNCaP-FGC), human prostate cancer cell line (PC-3), human prostate cancer cell line (DU-145), human breast cancer cell line (MCF-7), human hepatocellular carcinoma cell line (HepG2), human cervical cancer cell line (Hela), were obtained from the Chinese Academy of Medical Sciences and Peking Union Medical College. The cultures of the cells were maintained as a monolayer in RPMI 1640 or DMEM supplemented with 10% (v/v) heat inactivated fetal bovine serum and 1% (v/v) enicillin/streptomycin (Corning, New York, NY, USA) and incubated at 37 °C in a humidified atmosphere with 5% CO2. The tested compounds were dissolved in DMSO (Sigma, St. Louis, MO, USA) and added at required concentrations to the cell culture.
as §2

Assay [4] concerns MCF-7 cells (non-PSMA-expressing). In words: cells. Format: cell-based, human. As to conditions: MTT, 72 h, mean ± SD, n = 3; read-out: IC50 MCF-7. The procedure:
as §1, §3, §2

In assay [5] the test system is HepG2 cells (non-PSMA-expressing). In words: cells. Format: cell-based, human. As to conditions: MTT, 72 h, mean ± SD, n = 3; read-out: IC50 HepG2. The procedure: as §1, §3, §2
Assay [6] deals with PC-3 cells (non-PSMA-expressing). In words: cells. Format: cell-based, human. As to conditions: MTT, 72 h, mean ± SD, n = 3; read-out: IC50 PC-3. The procedure: as §1, §3, §2
For assay [7], the system named is LNCaP-FGC cells (PSMA-expressing). Nature of the assay: MTT cytotoxicity assay, LNCaP-FGC. As to conditions: MTT, 72 h, mean ± SD, n = 3; PSMA+; read-out: IC50 LNCaP-FGC. Format: cell-based, human. The procedure: as §1, §3, §2
In general terms: Tetrazolium dyes change colour on reduction, which living cells bring about.

The subject of assay [8] is HeLa cells (non-PSMA-expressing). In words: MTT cytotoxicity assay, HeLa. Format: cell-based, human. As to conditions: 72 h, mean ± SD, n = 3. How it is done: as §1
The tested compounds were dissolved in DMSO (Sigma, St. Louis, MO, USA) and added at required concentrations to the cell culture.
as §2, with “experiments.” for “experiments. The concentration of the compound that results in 50% growth inhibition corresponds to the IC50. Tumor cell growth inhibitory rate was calculated using Equation (1): % inhibition = (1 − Sample group OD/Control group OD) × 100%(1)”

Bounds are passed on as bounds.

What is called IC50 is the midpoint of a concentration-inhibition curve.

In the case of `CC[C@@]1(OC(=O)CCCNC(=O)[C@H](CCC(=O)N[C@@H](CCC(=O)N[C@@H](CCC(=O)N[C@@H](CC(=O)OC(C)(C)C)C(=O)N[C@@H](CCC(=O)OC(C)(C)C)C(=O)OC(C)(C)C)C(=O)OC(C)(C)C)C(=O)OC(C)(C)C)NC(=O)OC(C)(C)C)C(=O)OCc2c1cc1n(c2=O)Cc2cc3ccccc3nc2-1` [CPT-HT-J-L4, 1,11,16,3-tetra-tert-butyl 26-((S)-4-ethyl-3,14-dioxo-3,4,12,14-tetrahydro-1H-pyrano[3′,4′:6,7]indolizino[1,2-b]quinolin-4-yl) (3S,6S,11S,16S,21S)-6-(2-(tert-butoxy)-2-oxoethyl)-21-((tert-butoxycarbonyl)amino)-5,8,13,18,22-pentaoxo-4,7,12,17,23-pentaazahexacosane-1,3,11,16,26-pentacarboxylate], the IC50 in assay [1], in assay [2], in assay [3], in assay [4], in assay [5] and in assay [6] was > 40 µM each time. Further, the IC50 in assay [7] and in assay [8] was > 40 µM in each case.

Take `CC[C@@]1(OC(=O)CCCCCNC(=O)[C@H](CCC(=O)N[C@@H](CCC(=O)N[C@@H](CCC(=O)N[C@@H](CC(=O)OC(C)(C)C)C(=O)N[C@@H](CCC(=O)OC(C)(C)C)C(=O)OC(C)(C)C)C(=O)OC(C)(C)C)C(=O)OC(C)(C)C)NC(=O)OC(C)(C)C)C(=O)OCc2c1cc1n(c2=O)Cc2cc3ccccc3nc2-1` [CPT-HT-J-L6, 1,11,16,3-tetra-tert-butyl 28-((S)-4-ethyl-3,14-dioxo-3,4,12,14-tetrahydro-1H-pyrano[3′,4′:6,7]indolizino[1,2-b]quinolin-4-yl) (3S,6S,11S,16S,21S)-6-(2-(tert-butoxy)-2-oxoethyl)-21-((tert-butoxycarbonyl)amino)-5,8,13,18,22-pentaoxo-4,7,12,17,23-pentaazaoctacosane-1,3,11,16,28-pentacarboxylate]: the 50% inhibitory concentration (IC50) in assay [1], in assay [2], in assay [3], in assay [4], in assay [5] and in assay [6] was > 40 µM throughout. The IC50 in assay [7] and in assay [8] was > 40 µM in each case.

Consider `CC[C@@]1(OC(=O)CCCCCCCCCCCNC(=O)[C@H](CCC(=O)N[C@@H](CCC(=O)N[C@@H](CCC(=O)N[C@@H](CC(=O)OC(C)(C)C)C(=O)N[C@@H](CCC(=O)OC(C)(C)C)C(=O)OC(C)(C)C)C(=O)OC(C)(C)C)C(=O)OC(C)(C)C)NC(=O)OC(C)(C)C)C(=O)OCc2c1cc1n(c2=O)Cc2cc3ccccc3nc2-1` [CPT-HT-J-L12, 1,11,16,3-tetra-tert-butyl 34-((S)-4-ethyl-3,14-dioxo-3,4,12,14-tetrahydro-1H-pyrano[3′,4′:6,7]indolizino[1,2-b]quinolin-4-yl) (3S,6S,11S,16S,21S)-6-(2-(tert-butoxy)-2-oxoethyl)-21-((tert-butoxycarbonyl)amino)-5,8,13,18,22-pentaoxo-4,7,12,17,23-pentaazatetratriacontane-1,3,11,16,34-pentacarboxylate], for which the IC50 in assay [1], in assay [2], in assay [3], in assay [4], in assay [5] and in assay [6] was > 40 µM each time. For the same compound, the IC50 in assay [7] and in assay [8] was > 40 µM throughout.

Take `CC[C@@]1(OC(=O)CNC(=O)[C@@H](N)CCC(=O)N[C@@H](CCC(=O)N[C@@H](CCC(=O)N[C@@H](CC(=O)O)C(=O)N[C@@H](CCC(=O)O)C(=O)O)C(=O)O)C(=O)O)C(=O)OCc2c1cc1n(c2=O)Cc2cc3ccccc3nc2-1` [CPT-HT-J-ZL2, ((S)-4-((S)-4-((S)-4-amino-5-((2-(((S)-4-ethyl-3,14-dioxo-3,4,12,14-tetrahydro-1H-pyrano[3′,4′:6,7]indolizino[1,2-b]quinolin-4-yl)oxy)-2-oxoethyl)amino)-5-oxopentanamido)-4-carboxybutanamido)-4-carboxybutanoyl)-L-aspartyl-L-glutamic acid]: the IC50 was 1.27 ± 0.3 µM in assay [1]; 1.68 ± 0.45 µM in assay [2]; 1.16 ± 0.28 µM in assay [3]; 0.11 ± 0.08 µM in assay [4]; > 40 µM in assay [5]; 1 ± 0.1 µM in assay [6]. For the same compound, the results for the IC50 in assay [7] and in assay [8] were 2.04 ± 0.3 µM and 3.54 ± 2.54 µM, respectively.

`CC[C@@]1(OC(=O)CCCNC(=O)[C@@H](N)CCC(=O)N[C@@H](CCC(=O)N[C@@H](CCC(=O)N[C@@H](CC(=O)O)C(=O)N[C@@H](CCC(=O)O)C(=O)O)C(=O)O)C(=O)O)C(=O)OCc2c1cc1n(c2=O)Cc2cc3ccccc3nc2-1` [CPT-HT-J-ZL4, (3S,6S,11S,16S,21S)-21-amino-6-(carboxymethyl)-27-(((S)-4-ethyl-3,14-dioxo-3,4,12,14-tetrahydro-1H-pyrano[3′,4′:6,7]indolizino[1,2-b]quinolin-4-yl)oxy)-5,8,13,18,22,27-hexaoxo-4,7,12,17,23-pentaazaheptacosane-1,3,11,16-tetracarboxylic acid]: the IC50 in assay [1] was 9.13 ± 2.4 µM; in assay [2], > 40 µM; in assay [3] it was 9.73 ± 3.49 µM; in assay [4], 0.32 ± 0.01 µM; in assay [5], > 40 µM; in assay [6] it was 9.98 ± 2.38 µM. For the same compound, the IC50 was 1.18 ± 0.1 µM in assay [7] and > 40 µM in assay [8].

`CC[C@@]1(OC(=O)CCCCCNC(=O)[C@@H](N)CCC(=O)N[C@@H](CCC(=O)N[C@@H](CCC(=O)N[C@@H](CC(=O)O)C(=O)N[C@@H](CCC(=O)O)C(=O)O)C(=O)O)C(=O)O)C(=O)OCc2c1cc1n(c2=O)Cc2cc3ccccc3nc2-1` [CPT-HT-J-ZL6, (3S,6S,11S,16S,21S)-21-amino-6-(carboxymethyl)-29-(((S)-4-ethyl-3,14-dioxo-3,4,12,14-tetrahydro-1H-pyrano[3′,4′:6,7]indolizino[1,2-b]quinolin-4-yl)oxy)-5,8,13,18,22,29-hexaoxo-4,7,12,17,23-pentaazanonacosane-1,3,11,16-tetracarboxylic acid]: the IC50 in assay [1] is 19 ± 3.6 µM; in assay [2], > 40 µM; in assay [3] it was 26.3 ± 1.81 µM; in assay [4], 7.03 ± 3.76 µM; in assay [5] it was > 40 µM; in assay [6], 40 ± 3.37 µM. For the same compound, the half-maximal inhibitory concentration (IC50) in assay [7] is 3.13 ± 0.4 µM; in assay [8], > 40 µM.
